System: E. multilocularis metacestodes
Experiment: PGI-assay: drug-induced damage on in vitro cultured metacestodes (Pathogen Box screening cascade and EC50)
Type: cell-based, Echinococcus multilocularis
Settings: for PGI release, % of the Tx-100 control, 5d / PGI release, % of the Tx-100 control, 12d: 10 µM, singlets; for PGI release, % of the Tx-100 control, 5d / PGI release, % of Tx-100 control, average, 5d: 5 days of incubation; for PGI release, % of the Tx-100 control, 12d / PGI release, % of Tx-100 control, average, 12d: 12 days of incubation; for PGI release, % of Tx-100 control, average, 5d / PGI release, % of Tx-100 control, average, 12d: confirmatory screening at 10 µM in triplicates, values as % of Tx-100 control

Row | Structure (SMILES) | PGI release, % of the Tx-100 control, 5d | PGI release, % of the Tx-100 control, 12d | PGI release, % of Tx-100 control, average, 5d | PGI release, % of Tx-100 control, average, 12d
1 | Cc1ccc(-c2cc(C(=O)Nc3cccnc3)c3cc(Br)ccc3n2)cc1 [MMV016838] | -0.19% | -0.0545% |  | 
2 | COc1ccc(-c2cnc3cnc(-c4cccc(OC(C)C)c4)cn23)cc1 [MMV688270] | 0.02% | -0.02% |  | 
3 | Cc1nc(-c2ccccn2)nc(N(C)CCc2ccccc2)c1Cl [MMV658988] | 22.86% | 30.08% | 4.97% | 10.18%
4 | CCNC(=O)C(C)Nc1nc(-c2cccnc2)nc2sc(C)c(C)c12 (stereo not drawn) [MMV1037162] | 0.19% | -2.69% |  | 
5 | CCC(Sc1nc2ccccc2o1)C(=O)Nc1nnc(C)s1 (stereo not drawn) [MMV611037] | -0.81% | -1.11% |  | 
6 | CCC(NC(=O)c1ccccc1NC(=O)c1ccc(C)cc1)C(=O)OC (stereo not drawn) [MMV019551] | -0.56% | 0.21% |  | 
7 | Cc1nn(Cc2ccccc2)c(Cl)c1C(=O)NC1CCCCCC1 [MMV063404] | 0.0181% | 0.28% |  | 
8 | CC(C)(C)C(=O)N(CCCCCCN1C[C@H](O)[C@@H](O)[C@H](O)[C@H]1CO)C1CCCCCC1 [MMV688543] | -1.12% | -4.43% |  | 
9 | Cc1c[nH]c(CCNC(=O)c2cc(-c3ccc(Cl)cc3)cs2)n1 [MMV676350] | -0.41% | 1.56% |  | 
10 | CN1CCN(c2nccc3nc(-c4ccc(F)c(F)c4)[nH]c23)CC1 [MMV676260] | 0.28% | 0.56% |  | 
11 | Cc1cccnc1NC(=O)c1cccc(OCc2c(C)noc2C)c1 [MMV688793] | -3.90% | -0.61% |  | 
12 | COc1ccc(C2=NN(C3CCCCCC3)C(=O)[C@@H]3CC=CC[C@H]23)cc1OCCCCOc1ccc(-c2nn[nH]n2)cc1 [MMV690027] | 9.58% | 27.83% | 0.20% | 0.24%
13 | CCOC(=O)c1cc(-c2csc(Nc3c(C)cc(C)cc3C)n2)on1 [MMV676461] | 0.19% | -0.25% |  | 
14 | O=C(Nc1c(O)cccc1-c1nc2c(C(=O)O)cccc2o1)c1cc(-c2ccccc2)on1 [MMV676008] | -0.73% | -0.73% |  | 
15 | c1ccc(-c2cc(N3CCCCC3)c3ccccc3n2)nc1 [MMV560185] | 0.52% | -0.29% |  | 
16 | O=C(c1ccco1)N(CCCn1ccnc1)c1nc2c(Cl)cccc2s1 [MMV688936] | -2.60% | 13.45% |  | 
17 | COc1cc(C2=NCCN2)cc2cc(-c3ccc(C4=NCCN4)cc3)oc12 [MMV688362] | 0.03% | 0.64% |  | 
18 | Cc1cccc(Cn2ccc(NC(=O)c3ccc4c(c3)OCO4)n2)c1 [MMV676386] | 0.18% | -0.91% |  | 
19 | CC1=NN(c2nc3ccccc3s2)C(=O)C1Cc1cccc2ccccc12 (stereo not drawn) [MMV676558] | 13.65% | 78.65% | -0.26% | 0.35%
20 | Cc1ccc(S(=O)(=O)Nc2ccc(CN3CCN(C(=O)c4cccc(C#N)c4)CC3)cc2)cc1 [MMV689028] | 0.59% | -0.96% |  | 
21 | Cc1cc(OCC(=O)Nc2ccc(C(C)C)cc2)n(C)c(=O)c1C#N [MMV1198433] | 2.43% | -0.19% |  | 
22 | NC(N)=Nc1ccc(-c2ccc(-c3ccc(N=C(N)N)cc3Cl)o2)c(Cl)c1 [MMV688179] | -4.57% | 19.83% |  | 
23 | Nc1ncc(Br)cc1-c1nc2cc(Cl)cnc2[nH]1 [MMV676358] | 0.16% | -0.55% |  | 
24 | CNc1nnc(Sc2cnn(-c3ccccc3)c(=O)c2Cl)s1 [MMV688763] | 6.98% | 14.69% |  | 
25 | Nc1ncc(-c2ccc(C(F)(F)F)nc2)cc1-c1ccc(C(F)(F)F)nc1 [MMV668727] | -0.66% | -0.51% |  | 
26 | CS(=O)(=O)N1CCC(CCn2nc(Cc3cccc4ccccc34)c3c(N)ncnc32)CC1 [MMV688470] | 1.33% | 2.31% |  | 
27 | Cc1ccc(S(=O)(=O)n2cc(-c3ccnc(N)c3)c3cc(Br)cnc32)cc1 [MMV024114] | 3.26% | 5.70% |  | 
